Measurements from PMC10463303 (Veterinary Research, 2023).
Converted amounts (≈) assume the structure as drawn. Peptide text beside a SMILES is read from it.

How the values were obtained:
Assay type in all cases: cell-based, Streptococcus suis serotype 2
Conditions in all cases: 18 h
SS2 strain SC19 = system: SS2 strain SC19
Protocol: (§1) Tryptic soy broth (TSB; Beijing Land Bridge Technology Co., ltd, China) with 10% fetal bovine serum (FBS; Zhejiang Tianhang Biotechnology Co., ltd, China) were used as bacterial growth media for antimicrobial activity assays and tryptic soy agar (TSA; Beijing Land Bridge Technology Co., ltd, China) plates containing 10% FBS were used for the colony counting assay. Bacteria were cultured at 37 °C for 18 h in TSB or TSA agar plates.
(§2) Antimicrobial activity of cathelicidins was performed using a broth microdilution assay. Briefly, bacteria were maintained in TSB medium with 10% FBS at 37 °C and grown to mid-logarithmic growth phase before being tested. Then, 50 μL of peptides (0 to 80 μM) in triplicate were mixed with an equal volume of bacterial suspension (2 × 10^6 CFU/mL) in 96-well plates and incubated for 18 h at 37 ℃. The minimum inhibitory concentration (MIC) was defined as the lowest concentration of ones at which there was no visible bacteria growth. The minimum bactericidal concentration (MBC) was determined by colony counting. Fifty microliter mixed medium were removed from wells in which visible bacteria growth was not observed and then were plated out on TSA plates. After overnight culture at 37 °C, survival bacteria were counted.

SS2 strain P1/7 = test: Antimicrobial activity assay (broth microdilution MIC, MBC by colony counting)
Protocol: as §1, §2

[1] = system: SS2 strains including SC19 and P1/7
Protocol: as §1, §2

[2] = broth microdilution, TSB + 10% FBS, peptides 0 to 80 μM in triplicate, bacterial suspension 2 × 10^6 CFU/mL, 37 °C, no visible growth

SMILES	MBC toward SC19 (SS2 strain SC19)	MBC toward P1/7 (SS2 strain P1/7)	MBC (anti-SS2 activity) [1]	MIC (anti-SS2 activity) [1]	MIC toward SC19 (SS2 strain SC19; [2])	MIC toward P1/7 (SS2 strain P1/7; [2])
CC[C@H](C)[C@H](NC(=O)[C@H](CCCCN)NC(=O)[C@H](CCCNC(=N)N)NC(=O)[C@H](CC(C)C)NC(=O)[C@H](Cc1ccccc1)NC(=O)[C@H](CCCNC(=N)N)NC(=O)CNC(=O)[C@H](Cc1ccccc1)NC(=O)[C@@H](N)CCCNC(=N)N)C(=O)N[C@@H](CCCNC(=N)N)C(=O)N[C@@H](CCCNC(=N)N)C(=O)N[C@@H](Cc1ccccc1)C(=O)N[C@@H](CCCNC(=N)N)C(=O)N1CCC[C@H]1C(=O)N[C@@H](CCCCN)C(=O)N[C@H](C(=O)N[C@H](C(=O)N[C@H](C(=O)N[C@H](C(=O)N[C@H](C(=O)N[C@@H](CCC(N)=O)C(=O)NCC(=O)N[C@@H](CO)C(=O)N[C@@H](C)C(=O)N[C@@H](CCCNC(=N)N)C(=O)N[C@@H](Cc1ccccc1)C(=O)O)[C@@H](C)CC)[C@@H](C)O)[C@@H](C)CC)[C@@H](C)O)C(C)C [CATH-2] (H-RFGRFLRKIRRFRPKVTITIQGSARF-OH)	20 µM (≈ 64.2 µg/mL)	10 µM (≈ 32.1 µg/mL)	10 to 20 µM	10 to 20 µM	–	–
CC[C@H](C)[C@H](NC(=O)CNC(=O)[C@H](C)NC(=O)[C@H](C)NC(=O)[C@@H](NC(=O)[C@@H](NC(=O)[C@H](CC(N)=O)NC(=O)[C@@H](NC(=O)[C@H](C)NC(=O)[C@@H](NC(=O)[C@@H]1CCCN1C(=O)[C@@H](NC(=O)[C@H](CC(C)C)NC(=O)[C@@H]1CCCN1C(=O)[C@H](Cc1c[nH]c2ccccc12)NC(=O)[C@H](Cc1ccccc1)NC(=O)[C@H](CCCNC(=N)N)NC(=O)[C@H](CCCCN)NC(=O)[C@@H](NC(=O)[C@@H](N)CCCNC(=N)N)C(C)C)C(C)C)C(C)C)[C@@H](C)CC)[C@@H](C)O)C(C)C)C(=O)N[C@@H](CC(N)=O)C(=O)N[C@@H](CC(C)C)C(=O)N[C@@H](Cc1ccc(O)cc1)C(=O)N[C@@H](CCCCN)C(=O)N[C@@H](C)C(=O)N[C@H](C(=O)N[C@@H](CCCNC(=N)N)C(=O)N[C@@H](CCCNC(=N)N)C(=O)N[C@@H](CCCCN)C(=O)O)[C@@H](C)CC [CATH-3] (H-RVKRFWPLVPVAINTVAAGINLYKAIRRK-OH)	20 µM (≈ 67 µg/mL)	10 µM (≈ 33.5 µg/mL)	10 to 20 µM	10 to 20 µM	–	–
CC[C@H](C)[C@H](NC(=O)CNC(=O)[C@H](CC(N)=O)NC(=O)[C@H](CC(C)C)NC(=O)[C@H](Cc1c[nH]c2ccccc12)NC(=O)[C@H](CCC(=O)O)NC(=O)[C@H](Cc1c[nH]c2ccccc12)NC(=O)[C@@H](NC(=O)[C@H](CCCNC(=N)N)NC(=O)[C@@H](NC(=O)[C@H](Cc1c[nH]c2ccccc12)NC(=O)[C@H](Cc1c[nH]c2ccccc12)NC(=O)[C@H](CC(N)=O)NC(=O)[C@H](CCCNC(=N)N)NC(=O)[C@@H](NC(=O)[C@@H]1CCCN1)[C@@H](C)CC)[C@@H](C)CC)[C@@H](C)CC)C(=O)N[C@@H](CCCNC(=N)N)C(=O)N[C@@H](CCCCN)C(=O)N[C@@H](CCCNC(=N)N)C(=O)N[C@@H](CC(C)C)C(=O)N[C@@H](CCCNC(=N)N)C(=O)N[C@@H](CCC(N)=O)C(=O)N[C@@H](CCCNC(=N)N)C(=O)N[C@@H](CO)C(=O)N1CCC[C@H]1C(=O)N[C@@H](Cc1ccccc1)C(=O)N[C@@H](Cc1ccc(O)cc1)C(=O)N[C@H](C(=O)N[C@@H](CCCNC(=N)N)C(=O)NCC(=O)N[C@@H](Cc1c[nH]cn1)C(=O)N[C@@H](CC(C)C)C(=O)N[C@@H](CC(N)=O)C(=O)N[C@H](C(=O)N[C@H](C(=O)N[C@@H](CO)C(=O)N[C@H](C(=O)N1CCC[C@H]1C(=O)N[C@@H](CCC(N)=O)C(=O)N1CCC[C@H]1C(=O)O)[C@@H](C)O)[C@@H](C)O)C(C)C)C(C)C [CATH-B1] (H-PIRNWWIRIWEWLNGIRKRLRQRSPFYVRGHLNVTSTPQP-OH)	> 40 µM	> 40 µM	> 40 µM	> 40 µM	–	–
CC[C@H](C)[C@H](NC(=O)[C@H](CCCCN)NC(=O)[C@H](CCC(=O)O)NC(=O)CNC(=O)CNC(=O)[C@H](CCCCN)NC(=O)[C@H](CCCNC(=N)N)NC(=O)[C@H](CC(C)C)NC(=O)[C@H](CC(C)C)NC(=O)CN)C(=O)NCC(=O)N[C@@H](CCC(=O)O)C(=O)N[C@@H](CCCCN)C(=O)N[C@@H](CC(C)C)C(=O)N[C@@H](CCCCN)C(=O)N[C@@H](CCCCN)C(=O)N[C@H](C(=O)NCC(=O)N[C@@H](CCC(N)=O)C(=O)N[C@@H](CCCCN)C(=O)N[C@H](C(=O)N[C@@H](CCCCN)C(=O)N[C@@H](CC(N)=O)C(=O)N[C@@H](Cc1ccccc1)C(=O)N[C@@H](Cc1ccccc1)C(=O)N[C@@H](CCC(N)=O)C(=O)N[C@@H](CCCCN)C(=O)N[C@@H](CC(C)C)C(=O)N[C@H](C(=O)N1CCC[C@H]1C(=O)N[C@@H](CCC(N)=O)C(=O)N1CCC[C@H]1C(=O)N[C@@H](CCC(=O)O)C(=O)N[C@@H](CCC(N)=O)C(=O)O)C(C)C)[C@@H](C)CC)[C@@H](C)CC [CRAMP] (H-GLLRKGGEKIGEKLKKIGQKIKNFFQKLVPQPEQ-OH)	> 40 µM	> 40 µM	> 40 µM	> 40 µM	40 µM	40 µM
CC[C@H](C)[C@H](NC(=O)[C@H](CCCCN)NC(=O)[C@H](CCCCN)NC(=O)[C@H](CC(C)C)NC(=O)[C@H](CCCNC(=N)N)NC(=O)[C@H](CCCCN)NC(=O)[C@H](CCCNC(=N)N)NC(=O)[C@@H](NC(=O)[C@H](CCCCN)NC(=O)[C@H](CCCCN)NC(=O)[C@H](CCCNC(=N)N)NC(=O)[C@H](CC(C)C)NC(=O)[C@H](CCCNC(=N)N)NC(=O)[C@H](CCCNC(=N)N)NC(=O)[C@H](Cc1ccccc1)NC(=O)[C@H](CCCNC(=N)N)NC(=O)CN)[C@@H](C)O)C(=O)NCC(=O)N[C@@H](CCCCN)C(=O)N[C@H](C(=O)N[C@@H](CC(C)C)C(=O)N[C@@H](CCCCN)C(=O)N[C@@H](Cc1c[nH]c2ccccc12)C(=O)N[C@H](C(=O)N1CCC[C@H]1C(=O)N1CCC[C@H]1C(=O)N[C@H](C(=O)N[C@H](C(=O)NCC(=O)N[C@@H](CO)C(=O)N[C@H](C(=O)N1CCC[C@H]1C(=O)N[C@@H](CC(C)C)C(=O)NCC(=O)N[C@@H](CS)C(=O)NCC(=O)O)[C@@H](C)CC)C(C)C)[C@@H](C)CC)[C@@H](C)CC)C(C)C [PMAP-36] (H-GRFRRLRKKTRKRLKKIGKVLKWIPPIVGSIPLGCG-OH)	40 µM (≈ 166 µg/mL)	> 40 µM	> 40 µM	> 40 µM	–	–
CC[C@H](C)[C@H](NC(=O)[C@H](CCCNC(=N)N)NC(=O)[C@@H]1CCCN1C(=O)[C@@H]1CCCN1C(=O)[C@H](CC(C)C)NC(=O)[C@H](CCCNC(=N)N)NC(=O)[C@@H]1CCCN1C(=O)[C@@H]1CCCN1C(=O)[C@H](Cc1ccccc1)NC(=O)[C@H](Cc1ccccc1)NC(=O)[C@@H]1CCCN1C(=O)[C@@H]1CCCN1C(=O)[C@@H]1CCCN1C(=O)[C@H](CCCNC(=N)N)NC(=O)[C@@H]1CCCN1C(=O)[C@H](CCCNC(=N)N)NC(=O)[C@@H]1CCCN1C(=O)[C@H](CC(C)C)NC(=O)[C@H](Cc1ccc(O)cc1)NC(=O)[C@@H]1CCCN1C(=O)[C@@H]1CCCN1C(=O)[C@H](CCCNC(=N)N)NC(=O)[C@@H]1CCCN1C(=O)[C@H](CCCNC(=N)N)NC(=O)[C@H](CCCNC(=N)N)NC(=O)[C@@H](N)CCCNC(=N)N)C(=O)N1CCC[C@H]1C(=O)N1CCC[C@H]1C(=O)NCC(=O)N[C@@H](Cc1ccccc1)C(=O)N1CCC[C@H]1C(=O)N1CCC[C@H]1C(=O)N[C@@H](CCCNC(=N)N)C(=O)N[C@@H](Cc1ccccc1)C(=O)N1CCC[C@H]1C(=O)N1CCC[C@H]1C(=O)N[C@@H](CCCNC(=N)N)C(=O)N[C@@H](Cc1ccccc1)C(=O)N1CCC[C@H]1C(=O)O [PR-39] (H-RRRPRPPYLPRPRPPPFFPPRLPPRIPPGFPPRFPPRFP-OH)	> 40 µM	> 40 µM	> 40 µM	> 40 µM	–	–
